# Test results as given in PMC5282883, “Droplet-based microfluidic high-throughput screening of heterologous enzymes secreted by the yeast Yarrowia lipolytica” (Microbial Cell Factories, 2017).
# Legend:
# Experiment in all cases: fluorogenic hydrolysis assay, crude supernatant
# Type in all cases: biochemical
# Details in all cases: 150 µM substrate, 50 mM acetate buffer pH 4.5, 25 °C
# endoglucanase A = molecular target: T1, endoglucanase A (Aspergillus niger, UniProt A2R322)
# T1 construct: gene eglA; codon-optimised gene secreted by Yarrowia lipolytica strain JMY4343; crude supernatant; 26 kDa on SDS-PAGE
# endo-β-1,4-xylanase B = molecular target: T2, endo-β-1,4-xylanase B (Aspergillus niger, UniProt A2Q7I0)
# T2 construct: gene xlnB; codon-optimised gene secreted by Yarrowia lipolytica strain JMY4346; crude supernatant; 22 kDa on SDS-PAGE
# endo-β-1,4-xylanase C = molecular target: T3, endo-β-1,4-xylanase C (Aspergillus niger, UniProt A2QFV7)
# T3 construct: gene xlnC; codon-optimised gene secreted by Yarrowia lipolytica strain JMY4510; crude supernatant
# T2 sequence (A2Q7I0 19-225): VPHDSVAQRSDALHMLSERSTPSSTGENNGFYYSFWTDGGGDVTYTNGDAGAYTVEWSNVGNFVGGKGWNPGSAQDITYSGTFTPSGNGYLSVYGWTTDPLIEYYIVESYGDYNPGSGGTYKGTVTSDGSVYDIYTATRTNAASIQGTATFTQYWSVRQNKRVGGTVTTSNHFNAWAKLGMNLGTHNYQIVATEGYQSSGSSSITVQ
# T1 sequence (A2R322 17-239): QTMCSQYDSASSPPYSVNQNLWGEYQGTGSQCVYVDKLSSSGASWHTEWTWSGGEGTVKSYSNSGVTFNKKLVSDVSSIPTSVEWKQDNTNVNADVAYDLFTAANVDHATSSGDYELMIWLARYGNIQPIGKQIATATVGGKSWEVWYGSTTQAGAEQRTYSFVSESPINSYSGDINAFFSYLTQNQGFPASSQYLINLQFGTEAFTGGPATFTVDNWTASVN
SMILES,"fluorogenic hydrolysis assay, crude supernatant (endoglucanase A)","fluorogenic hydrolysis assay, crude supernatant (endo-β-1,4-xylanase B)","fluorogenic hydrolysis assay, crude supernatant (endo-β-1,4-xylanase C)"
"O=c1cc(CS(=O)(=O)O)c2cc(F)c(O[C@@H]3O[C@H](CO)[C@@H](O[C@@H]4O[C@H](CO)[C@@H](O)[C@H](O)[C@H]4O)[C@H](O)[C@H]3O)c(F)c2o1 [β-D-cellobioside-6,8-difluoro-7-hydroxycoumarin-4-methansulfonate]",JMY4343 (egla) displayed a low activity with this substrate,–,–
"O=c1cc(CS(=O)(=O)O)c2cc(F)c(O[C@@H]3OC[C@@H](O[C@@H]4OC[C@@H](O)[C@H](O)[C@H]4O)[C@H](O)[C@H]3O)c(F)c2o1 [β-D-xylobioside-6,8-difluoro-7-hydroxycoumarin-4-methansulfonate]",–,"The JMY4346 (xlnb) and JMY4510 (xlnc) strains exhibited similar levels of endo-β-1,4-xylanase activity","The JMY4346 (xlnb) and JMY4510 (xlnc) strains exhibited similar levels of endo-β-1,4-xylanase activity"
